{"source": "ChEMBL document CHEMBL5715949", "about": "“Discovery of a selective irreversible BMX inhibitor for prostate cancer” (ACS Chem Biol, 2013)", "key": {"[1]": {"target": "Peripheral plasma membrane protein CASK (Homo sapiens) (UniProt O14936)", "assay": "Inhibition of CASK (unknown origin) assessed as remaining activity at 1 uM by Kinome scan method relative to control"}, "[2]": {"target": "Phosphatidylinositol 4,5-bisphosphate 3-kinase catalytic subunit gamma isoform (Homo sapiens) (UniProt P48736)", "assay": "Inhibition of PIK3CG (unknown origin) assessed as remaining activity at 1 uM by Kinome scan method relative to control"}, "[3]": {"target": "TRAF2 and NCK-interacting protein kinase (Homo sapiens) (UniProt Q9UKE5)", "assay": "Inhibition of TNIK (unknown origin) assessed as remaining activity at 1 uM by Kinome scan method relative to control"}, "[4]": {"target": "Proto-oncogene tyrosine-protein kinase receptor Ret (Homo sapiens) (UniProt P07949)", "assay": "Inhibition of RET (unknown origin) assessed as remaining activity at 1 uM by Kinome scan method relative to control"}, "RV-1 [5]": {"tested_on": "RV-1", "assay": "Antiproliferative activity against human RV-1 cells assessed as reduction in cell viability at 500 to 2500 nM incubated for 5 days in presence of WYE125132 by CellTiter-Glo assay", "type": "functional, cell-based", "conditions": "dose 500-2500 nM, time 5.0 day"}, "[6]": {"target": "Serine/threonine-protein kinase PLK2 (Homo sapiens) (UniProt Q9NYY3)", "assay": "Inhibition of PLK2 (unknown origin) assessed as remaining activity at 1 uM by Kinome scan method relative to control"}, "[7]": {"target": "STE20-like serine/threonine-protein kinase (Homo sapiens) (UniProt Q9H2G2)", "sequence (Q9H2G2 whole entry, looked up)": "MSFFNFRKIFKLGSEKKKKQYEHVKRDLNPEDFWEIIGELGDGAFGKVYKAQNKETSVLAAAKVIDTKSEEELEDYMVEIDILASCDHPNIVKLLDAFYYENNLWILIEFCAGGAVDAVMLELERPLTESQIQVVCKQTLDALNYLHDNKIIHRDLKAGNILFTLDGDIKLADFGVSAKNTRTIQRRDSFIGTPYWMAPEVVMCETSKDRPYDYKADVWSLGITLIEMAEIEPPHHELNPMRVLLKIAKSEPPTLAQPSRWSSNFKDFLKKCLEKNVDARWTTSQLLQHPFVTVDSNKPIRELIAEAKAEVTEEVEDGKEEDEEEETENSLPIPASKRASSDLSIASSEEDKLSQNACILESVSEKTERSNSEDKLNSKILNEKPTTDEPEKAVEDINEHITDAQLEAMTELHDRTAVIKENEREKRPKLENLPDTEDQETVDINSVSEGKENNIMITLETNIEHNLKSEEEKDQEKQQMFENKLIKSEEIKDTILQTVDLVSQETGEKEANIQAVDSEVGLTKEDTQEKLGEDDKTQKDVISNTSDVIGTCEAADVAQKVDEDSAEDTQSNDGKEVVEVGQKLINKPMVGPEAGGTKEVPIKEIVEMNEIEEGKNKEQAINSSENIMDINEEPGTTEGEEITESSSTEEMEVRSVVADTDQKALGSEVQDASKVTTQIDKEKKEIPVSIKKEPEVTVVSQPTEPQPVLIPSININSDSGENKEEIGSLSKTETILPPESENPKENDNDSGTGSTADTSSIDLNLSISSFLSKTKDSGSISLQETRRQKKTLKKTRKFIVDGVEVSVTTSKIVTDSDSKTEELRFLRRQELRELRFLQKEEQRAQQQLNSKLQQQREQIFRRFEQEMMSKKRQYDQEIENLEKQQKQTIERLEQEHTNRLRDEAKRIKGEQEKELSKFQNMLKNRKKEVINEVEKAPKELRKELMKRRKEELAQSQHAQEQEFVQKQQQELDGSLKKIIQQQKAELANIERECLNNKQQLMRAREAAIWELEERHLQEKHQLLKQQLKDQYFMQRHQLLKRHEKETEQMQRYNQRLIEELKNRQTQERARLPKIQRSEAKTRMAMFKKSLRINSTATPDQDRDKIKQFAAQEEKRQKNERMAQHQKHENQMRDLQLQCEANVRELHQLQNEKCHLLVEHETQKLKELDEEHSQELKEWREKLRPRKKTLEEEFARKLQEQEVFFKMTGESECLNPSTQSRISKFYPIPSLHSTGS", "assay": "Inhibition of SLK (unknown origin) assessed as remaining activity at 1 uM by Kinome scan method relative to control"}, "[8]": {"target": "Cyclin-dependent kinase-like 2 (Homo sapiens) (UniProt Q92772)", "sequence (Q92772 whole entry)": "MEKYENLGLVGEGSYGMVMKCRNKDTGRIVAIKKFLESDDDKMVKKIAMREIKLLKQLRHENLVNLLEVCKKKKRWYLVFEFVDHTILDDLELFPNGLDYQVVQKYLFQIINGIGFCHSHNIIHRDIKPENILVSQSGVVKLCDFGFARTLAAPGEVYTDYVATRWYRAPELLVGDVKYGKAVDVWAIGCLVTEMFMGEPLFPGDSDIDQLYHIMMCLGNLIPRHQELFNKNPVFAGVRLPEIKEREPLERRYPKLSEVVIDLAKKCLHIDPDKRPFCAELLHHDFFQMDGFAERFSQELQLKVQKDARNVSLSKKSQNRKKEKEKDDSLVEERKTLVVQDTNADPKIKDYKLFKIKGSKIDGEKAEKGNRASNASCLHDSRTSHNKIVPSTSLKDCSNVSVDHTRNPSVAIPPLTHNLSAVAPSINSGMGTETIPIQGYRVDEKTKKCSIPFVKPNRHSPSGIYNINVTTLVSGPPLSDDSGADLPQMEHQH", "assay": "Inhibition of CDKL2 (unknown origin) assessed as remaining activity at 1 uM by Kinome scan method relative to control"}, "[9]": {"target": "Mitogen-activated protein kinase kinase kinase 7 (Homo sapiens) (UniProt O43318)", "assay": "Inhibition of TAK1 (unknown origin) assessed as remaining activity at 1 uM by Kinome scan method relative to control"}, "[10]": {"assay": "Inhibition of PI3K/AKT/mTOR signalling pathway in human RV-1 cells assessed as decrease in AKT phosphorylation at T308 residue at 2.5 uM incubated for 4 hrs by immunoblot analysis", "type": "cell-based"}, "[11]": {"target": "Mitogen-activated protein kinase 4 (Homo sapiens) (UniProt P31152)", "sequence (P31152 whole entry)": "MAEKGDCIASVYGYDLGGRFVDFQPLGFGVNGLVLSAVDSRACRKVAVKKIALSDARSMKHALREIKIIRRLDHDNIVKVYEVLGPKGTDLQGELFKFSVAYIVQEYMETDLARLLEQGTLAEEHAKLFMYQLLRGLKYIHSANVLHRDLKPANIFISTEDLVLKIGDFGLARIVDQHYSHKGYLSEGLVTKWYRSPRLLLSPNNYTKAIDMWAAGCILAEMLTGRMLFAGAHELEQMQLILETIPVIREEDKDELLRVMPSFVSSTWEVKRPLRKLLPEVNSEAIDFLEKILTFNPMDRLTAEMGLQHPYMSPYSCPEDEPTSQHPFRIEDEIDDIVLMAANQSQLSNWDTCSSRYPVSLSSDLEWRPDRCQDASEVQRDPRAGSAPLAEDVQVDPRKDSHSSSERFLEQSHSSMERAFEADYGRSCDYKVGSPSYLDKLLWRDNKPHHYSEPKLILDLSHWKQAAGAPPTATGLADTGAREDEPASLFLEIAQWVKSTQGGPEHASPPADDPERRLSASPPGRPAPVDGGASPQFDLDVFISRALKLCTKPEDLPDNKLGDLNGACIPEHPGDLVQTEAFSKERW", "assay": "Inhibition of ERK4 (unknown origin) assessed as remaining activity at 1 uM by Kinome scan method relative to control"}, "[12]": {"target": "Rho-associated protein kinase 1 (Homo sapiens) (UniProt Q13464)", "assay": "Inhibition of ROCK1 (unknown origin) assessed as remaining activity at 1 uM by Kinome scan method relative to control"}, "[13]": {"target": "Dual specificity testis-specific protein kinase 1 (Homo sapiens) (UniProt Q15569)", "assay": "Inhibition of TESK1 (unknown origin) assessed as remaining activity at 1 uM by Kinome scan method relative to control"}, "[14]": {"assay": "Induction of cell cycle arrest in human RV-1 cells assessed as accumulation of cells at S phase at 2.5 uM incubated for 5 days in presence of MK2206 by propidium iodide staining based flow cytometric analysis (reference value: 28.9 %)", "type": "functional", "conditions": "time 5 day"}, "RV-1 [15]": {"tested_on": "RV-1", "assay": "Antiproliferative activity against human RV-1 cells assessed as reduction in cell viability at 500 to 2500 nM incubated for 5 days in presence of Torin1 by CellTiter-Glo assay", "type": "functional, cell-based", "conditions": "dose 500-2500 nM, time 5.0 day"}, "[16]": {"target": "Casein kinase II subunit alpha (Homo sapiens) (UniProt P68400)", "sequence (P68400 whole entry, looked up)": "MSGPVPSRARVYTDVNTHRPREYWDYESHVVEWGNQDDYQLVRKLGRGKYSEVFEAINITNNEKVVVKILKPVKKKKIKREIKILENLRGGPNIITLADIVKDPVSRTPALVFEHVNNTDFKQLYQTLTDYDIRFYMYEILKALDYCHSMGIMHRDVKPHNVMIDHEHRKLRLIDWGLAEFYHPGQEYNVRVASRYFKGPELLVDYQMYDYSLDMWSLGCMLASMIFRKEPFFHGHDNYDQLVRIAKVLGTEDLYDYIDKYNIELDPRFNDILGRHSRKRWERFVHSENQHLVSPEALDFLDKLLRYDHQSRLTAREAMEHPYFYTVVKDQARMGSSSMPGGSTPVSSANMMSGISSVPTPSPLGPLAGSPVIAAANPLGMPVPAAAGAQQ", "assay": "Inhibition of CSNK2A1 (unknown origin) assessed as remaining activity at 1 uM by Kinome scan method relative to control"}, "[17]": {"target": "Tyrosine-protein kinase ZAP-70 (Homo sapiens) (UniProt P43403)", "assay": "Inhibition of ZAP70 (unknown origin) assessed as remaining activity at 1 uM by Kinome scan method relative to control"}, "[18]": {"target": "Ribosomal protein S6 kinase alpha-3 (Homo sapiens) (UniProt P51812)", "assay": "Inhibition of N-terminal kinase domain RSK2 (unknown origin) assessed as remaining activity at 1 uM by Kinome scan method relative to control"}, "[19]": {"tested_on": "Tyrosine-protein kinase ABL1 (Homo sapiens), P00519 [H396P]", "assay": "Inhibition of ABL1 H396P mutant (unknown origin) assessed as remaining activity at 1 uM by Kinome scan method relative to control"}, "[20]": {"target": "Dual specificity protein kinase CLK4 (Homo sapiens) (UniProt Q9HAZ1)", "sequence (Q9HAZ1 whole entry, looked up)": "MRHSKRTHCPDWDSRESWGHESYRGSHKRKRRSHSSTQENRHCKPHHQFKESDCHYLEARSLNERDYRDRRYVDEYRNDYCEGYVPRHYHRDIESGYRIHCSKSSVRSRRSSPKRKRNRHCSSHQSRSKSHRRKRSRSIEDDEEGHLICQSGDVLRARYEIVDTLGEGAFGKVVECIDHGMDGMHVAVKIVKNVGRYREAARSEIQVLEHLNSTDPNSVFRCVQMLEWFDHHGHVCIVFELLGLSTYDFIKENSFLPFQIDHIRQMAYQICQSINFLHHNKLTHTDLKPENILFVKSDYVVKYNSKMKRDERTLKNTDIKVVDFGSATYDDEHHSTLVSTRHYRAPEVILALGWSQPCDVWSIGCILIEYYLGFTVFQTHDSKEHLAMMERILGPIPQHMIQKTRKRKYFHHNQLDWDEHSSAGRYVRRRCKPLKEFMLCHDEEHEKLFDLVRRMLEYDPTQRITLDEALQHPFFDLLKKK", "assay": "Inhibition of CLK4 (unknown origin) assessed as remaining activity at 1 uM by Kinome scan method relative to control"}, "[21]": {"target": "Non-receptor tyrosine-protein kinase TYK2 (Homo sapiens) (UniProt P29597)", "assay": "Inhibition of TYK2 JH1 domain (unknown origin) assessed as remaining activity at 1 uM by Kinome scan method relative to control"}, "[22]": {"target": "Cytoplasmic tyrosine-protein kinase BMX (Homo sapiens, UniProt P51813)", "assay": "Inhibition of Flag-tagged BMX (unknown origin) expressed in HEK293T cells pre incubated for 30 mins followed by ATP addition and measured after 20 mins by immunoprecipitate assay", "type": "cell-based"}, "[23]": {"target": "Ephrin type-B receptor 3 (Homo sapiens) (UniProt P54753)", "assay": "Inhibition of EPHB3 (unknown origin) assessed as remaining activity at 1 uM by Kinome scan method relative to control"}, "[24]": {"target": "SRSF protein kinase 1 (Homo sapiens) (UniProt Q96SB4)", "sequence (Q96SB4 whole entry)": "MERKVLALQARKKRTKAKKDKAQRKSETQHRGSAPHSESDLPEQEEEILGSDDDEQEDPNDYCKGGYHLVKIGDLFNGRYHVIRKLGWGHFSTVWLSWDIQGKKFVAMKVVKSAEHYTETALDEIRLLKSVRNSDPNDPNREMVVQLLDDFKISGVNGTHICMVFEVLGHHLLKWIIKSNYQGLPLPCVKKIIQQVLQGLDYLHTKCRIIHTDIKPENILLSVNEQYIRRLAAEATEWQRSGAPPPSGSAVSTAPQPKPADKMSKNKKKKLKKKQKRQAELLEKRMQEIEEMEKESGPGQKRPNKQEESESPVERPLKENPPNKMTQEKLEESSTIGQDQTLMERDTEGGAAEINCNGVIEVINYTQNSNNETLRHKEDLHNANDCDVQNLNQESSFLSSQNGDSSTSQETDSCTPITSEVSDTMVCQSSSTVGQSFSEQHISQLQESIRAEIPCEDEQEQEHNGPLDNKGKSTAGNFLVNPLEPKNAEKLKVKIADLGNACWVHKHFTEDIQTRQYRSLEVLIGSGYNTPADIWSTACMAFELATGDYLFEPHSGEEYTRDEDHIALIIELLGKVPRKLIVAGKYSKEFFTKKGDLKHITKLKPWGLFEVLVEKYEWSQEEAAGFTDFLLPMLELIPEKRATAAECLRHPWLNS", "assay": "Inhibition of SRPK1 (unknown origin) assessed as remaining activity at 1 uM by Kinome scan method relative to control"}, "[25]": {"target": "Platelet-derived growth factor receptor beta (Homo sapiens) (UniProt P09619)", "sequence (P09619 whole entry)": "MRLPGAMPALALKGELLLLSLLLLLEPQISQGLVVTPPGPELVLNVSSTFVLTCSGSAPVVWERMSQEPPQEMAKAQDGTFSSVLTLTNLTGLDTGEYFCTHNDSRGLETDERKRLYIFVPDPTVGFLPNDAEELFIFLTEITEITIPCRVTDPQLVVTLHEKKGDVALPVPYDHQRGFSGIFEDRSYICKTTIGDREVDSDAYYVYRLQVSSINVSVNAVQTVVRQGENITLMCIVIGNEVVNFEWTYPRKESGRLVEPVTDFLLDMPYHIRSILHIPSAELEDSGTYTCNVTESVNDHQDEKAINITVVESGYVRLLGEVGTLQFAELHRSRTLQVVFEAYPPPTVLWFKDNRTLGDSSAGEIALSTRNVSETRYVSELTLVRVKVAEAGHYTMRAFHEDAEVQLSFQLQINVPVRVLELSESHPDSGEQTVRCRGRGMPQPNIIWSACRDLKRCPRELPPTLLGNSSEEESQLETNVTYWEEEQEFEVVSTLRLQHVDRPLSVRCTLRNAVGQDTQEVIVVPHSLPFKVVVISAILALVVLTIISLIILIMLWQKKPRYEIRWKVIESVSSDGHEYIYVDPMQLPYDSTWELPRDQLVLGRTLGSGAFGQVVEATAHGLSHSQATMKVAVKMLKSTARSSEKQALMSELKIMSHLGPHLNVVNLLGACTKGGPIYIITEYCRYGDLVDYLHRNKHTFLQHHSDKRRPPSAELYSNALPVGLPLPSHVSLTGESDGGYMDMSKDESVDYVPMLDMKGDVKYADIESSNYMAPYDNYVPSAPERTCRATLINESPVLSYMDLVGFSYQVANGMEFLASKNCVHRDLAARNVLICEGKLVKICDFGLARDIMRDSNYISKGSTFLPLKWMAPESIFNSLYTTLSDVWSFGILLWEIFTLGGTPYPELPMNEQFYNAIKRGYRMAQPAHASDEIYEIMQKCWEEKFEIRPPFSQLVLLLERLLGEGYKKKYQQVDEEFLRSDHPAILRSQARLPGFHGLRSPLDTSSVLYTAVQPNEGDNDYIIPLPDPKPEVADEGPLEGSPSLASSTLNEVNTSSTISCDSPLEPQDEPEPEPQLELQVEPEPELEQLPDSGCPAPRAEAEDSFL", "assay": "Inhibition of PDGFRbeta (unknown origin) assessed as remaining activity at 1 uM by Kinome scan method relative to control"}, "[26]": {"target": "Serine/threonine-protein kinase pim-3 (Homo sapiens) (UniProt Q86V86)", "assay": "Inhibition of PIM3 (unknown origin) assessed as remaining activity at 1 uM by Kinome scan method relative to control"}, "[27]": {"target": "Myosin light chain kinase 2, skeletal/cardiac muscle (Homo sapiens) (UniProt Q9H1R3)", "assay": "Inhibition of MYLK2 (unknown origin) assessed as remaining activity at 1 uM by Kinome scan method relative to control"}, "BaF3": {"tested_on": "BaF3", "assay": "Antiproliferative activity against mouse BaF3 cells expressing TEL-fused BLK assessed growth inhibition incubated for 2 to 5 days by CellTiter-Glo assay", "type": "functional", "conditions": "time 2-5 day"}, "[28]": {"target": "Phosphatidylinositol 5-phosphate 4-kinase type-2 gamma (Homo sapiens) (UniProt Q8TBX8)", "assay": "Inhibition of PIP5K2C (unknown origin) assessed as remaining activity at 1 uM by Kinome scan method relative to control"}, "[29]": {"target": "Phosphatidylinositol 4-kinase beta (Homo sapiens) (UniProt Q9UBF8)", "assay": "Inhibition of PIK4CB (unknown origin) assessed as remaining activity at 1 uM by Kinome scan method relative to control"}, "[30]": {"target": "Tyrosine-protein kinase Fes/Fps (Homo sapiens) (UniProt P07332)", "assay": "Inhibition of FES (unknown origin) assessed as remaining activity at 1 uM by Kinome scan method relative to control"}, "[31]": {"assay": "Inhibition of PI3K/AKT/mTOR signalling pathway in human RV-1 cells assessed as decrease in PRAS40 phosphorylation at T246 residue at 2.5 uM incubated for 4 hrs by immunoblot analysis", "type": "cell-based"}}, "note": "The source made the active and inactive calls. The rule behind the calls is not given here.", "data": [{"smiles": "C=CC(=O)Nc1cc(-n2c(=O)ccc3cnc4ccc(-c5ccc(NS(C)(=O)=O)cc5)cc4c32)ccc1C", "values": [{"measurement": "Activity", "setting": "[1]", "value": 61, "unit": "%"}, {"measurement": "Activity", "setting": "[2]", "value": 2.8, "unit": "%"}, {"measurement": "Activity", "setting": "[3]", "value": 96, "unit": "%"}, {"measurement": "Activity", "setting": "[4]", "value": 88, "unit": "%"}, {"measurement": "Activity", "setting": "RV-1 [5]", "value": "Active"}, {"measurement": "Activity", "setting": "[6]", "value": 72, "unit": "%"}, {"measurement": "Activity", "setting": "[7]", "value": 59, "unit": "%"}, {"measurement": "Activity", "setting": "[8]", "value": 93, "unit": "%"}, {"measurement": "Activity", "setting": "[9]", "value": 83, "unit": "%"}, {"measurement": "inhibition", "setting": "[10]", "value": "inactive"}, {"measurement": "Activity", "setting": "[11]", "value": 91, "unit": "%"}, {"measurement": "Activity", "setting": "[12]", "value": 56, "unit": "%"}, {"measurement": "Activity", "setting": "[13]", "value": 94, "unit": "%"}, {"measurement": "Activity", "setting": "[14]", "value": 24.3, "unit": "%"}, {"measurement": "Activity", "setting": "RV-1 [15]", "value": "Active"}, {"measurement": "Activity", "setting": "[16]", "value": 84, "unit": "%"}, {"measurement": "Activity", "setting": "[17]", "value": 91, "unit": "%"}, {"measurement": "Activity", "setting": "[18]", "value": 81, "unit": "%"}, {"measurement": "Activity", "setting": "[19]", "value": 74, "unit": "%"}, {"measurement": "Activity", "setting": "[20]", "value": 99, "unit": "%"}, {"measurement": "Activity", "setting": "[21]", "value": 80, "unit": "%"}, {"measurement": "IC50", "setting": "[22]", "value": 138, "unit": "nM"}, {"measurement": "Activity", "setting": "[23]", "value": 83, "unit": "%"}, {"measurement": "Activity", "setting": "[24]", "value": 78, "unit": "%"}, {"measurement": "Activity", "setting": "[25]", "value": 76, "unit": "%"}, {"measurement": "Activity", "setting": "[26]", "value": 83, "unit": "%"}, {"measurement": "Activity", "setting": "[27]", "value": 93, "unit": "%"}, {"measurement": "GI50", "setting": "BaF3", "value": 3640, "unit": "nM"}, {"measurement": "Activity", "setting": "[28]", "value": 5.6, "unit": "%"}, {"measurement": "Activity", "setting": "[29]", "value": 79, "unit": "%"}, {"measurement": "Activity", "setting": "[30]", "value": 92, "unit": "%"}, {"measurement": "inhibition", "setting": "[31]", "value": "inactive"}]}]}
